In patent US20230338531A1, “COMPOSITIONS AND USES OF CD45 TARGETED CHIMERIC ANTIGEN RECEPTOR MODIFIED T CELLS” (City of Hope, priority 2020, published 2023):

Assays:
PTPRC (CD45) gene = assay: CD45 protein expression after PTPRC (CD45) gene knockout by CRISPR/Cas9; format: cell-based; details: T cells after CRISPR/cas9 mediated CD45KO vs wild type
From the text: FIGS. 11A-11B show CD45 protein expression profile after PTPRC (CD45) gene knockout by CRISPR/Cas9 gene editing.
Cell Isolation, CD45 gene editing, CD45-CAR Lentiviral Transduction, and Ex Vivo Expansion_Leukapheresis products were obtained from consented research participants (healthy donors) under protocols approved by the City of Hope Internal Review Board (IRB). On the day of leukapheresis, peripheral blood mononuclear cells (PBMC) were isolated by density gradient centrifugation over Ficoll-Paque (GE Healthcare) followed by multiple washes in PBS/EDTA (Miltenyi Biotec). Cells were rested overnight at room temperature (RT) on a rotator, and subsequently washed and resuspended in X-VIVO T cell medium (Lonza) containing 10% FBS (complete X-VIVO). Up to 5.0×10^9 PBMC were incubated with anti-CD14 and anti-CD25 microbeads (Miltenyi Biotec) for 30 min at RT and magnetically depleted using the CliniMACS® system (Miltenyi Biotec) according to the manufacturer's protocol and these were termed depleted PBMCs (dPBMC). dPBMC were frozen in CryoStor® CS5 (StemCell Technologies) until further processing. […]
Experiments were then conducted to quantify the CD45 protein expression on wild type and CD45 knock out T cells after PTPRC (CD45) gene knockout by CRISPR/Cas9 gene editing. hCD45gRNA #3_E12, […] […]

[1] = tested on: iCasp9-CD45-CAR lentivirus transduced HT1080 cells; assay: Induced cell depletion by iCasp9 safety switch; format: cell-based; details: 100 μM, 24h, normalized to non-treated group
Method: To test the effects of a suicide switch as a safety precaution, experiments were conducted to investigate the induced cell depletion effect of rimiducid on iCasp9-CD45-CAR lentivirus transduced cells. iCasp9 can be activated by a specific chemical inducer of dimerization (CID) such as rimiducid, leading to efficient elimination of iCasp9 engineered cell.
The order of iCaspase 9 and CD45 scFv components can be switched (e.g., promoter-CD45CAR-T2A-iCaspase9-etc). HT1080 cells were transduced by lentivirus. […] Transduced HT1080 cells were seeded in 24 well plate and treated with 100 μM ramiducid for 24h normalized and compared to non-treated group, and the relative survival cell number was quantified (FIG. 10C). Treating the iCasp9-CD45-CAR cells with ramiducid reduced cell survival to 36% (FIG. 10C).

Molecule	CD45 expression (flow cytometry, MFI) (PTPRC (CD45) gene)	relative survival cell number [1]
CUUCUACAAAAAAUAAUCUG (SEQ ID NO: 39) (listed as RNA, chemistry not given here) [hCD45gRNA #3_E12, gRNA targeting PTPRC exon 12]	decreasing expression of CD45	
CC[C@H](C(=O)N1CCCC[C@H]1C(=O)O[C@H](CCc1ccc(OC)c(OC)c1)c1cccc(OCC(=O)NCCNC(=O)COc2cccc([C@@H](CCc3ccc(OC)c(OC)c3)OC(=O)[C@@H]3CCCCN3C(=O)[C@@H](CC)c3cc(OC)c(OC)c(OC)c3)c2)c1)c1cc(OC)c(OC)c(OC)c1 [ramiducid]		36%
